Laboratory results from patent publication US8202880B2, “3-hydroxy-6-phenylphenanthridines as PDE4 inhibitors” (NYCOMED GmbH, priority 2002, dated 2012).

melting point [°C] | Compound
137 to 138 | COc1cc2c(cc1OC)C1CCC(O)CC1N=C2c1ccc(OCC2CC2)c(OCC2CC2)c1 (racemic) [Compound 3, (±)-(3RS,4aRS,10bRS)-6-(3,4-Bis-cyclopropylmethoxyphenyl)-8,9-dimethoxy(1,2,3,4,4a,10b)-hexahydrophenanthridin-3-ol]
172.5 to 174 | COc1cc2c(cc1OC)[C@H]1CC[C@H](O)C[C@H]1N=C2c1ccc(OCC2CC2)c(OCC2CC2)c1 (racemic) [Compound 4, (±)-(3SR,4aRS,10bRS)-6-(3,4-Bis-cyclopropylmethoxyphenyl)-8,9-dimethoxy-1,2,3,4,4a,10b-hexahydrophenanthridin-3-ol]
